Patent publication US6818765B1, “Benzene-sulphonamide derivatives and their uses” (Universite de Liege, priority 1999, dated 2004)
pIC50: −log10 of the molar value. Where two headings read alike, the source gives them in different places.

Key:
[1] = target: T1, thromboxane A2 receptors (TPα) of human platelets (Homo sapiens, UniProt P21731); assay: Binding test: displacement of [3H]SQ-29.548 from human platelet thromboxane A2 receptors; settings: for inhibition at 1 µM: read-out: Affinity: percent of [3H]SQ-29.548 specifically substituted by the examined compound, compound 10^-6 M; for inhibition at 0.1 µM: read-out: Affinity: percent of [3H]SQ-29.548 specifically substituted by the examined compound, compound 10^-7 M
T1 construct: endogenous in cells; host or cells: human platelets
T1 sequence (P21731 1-343): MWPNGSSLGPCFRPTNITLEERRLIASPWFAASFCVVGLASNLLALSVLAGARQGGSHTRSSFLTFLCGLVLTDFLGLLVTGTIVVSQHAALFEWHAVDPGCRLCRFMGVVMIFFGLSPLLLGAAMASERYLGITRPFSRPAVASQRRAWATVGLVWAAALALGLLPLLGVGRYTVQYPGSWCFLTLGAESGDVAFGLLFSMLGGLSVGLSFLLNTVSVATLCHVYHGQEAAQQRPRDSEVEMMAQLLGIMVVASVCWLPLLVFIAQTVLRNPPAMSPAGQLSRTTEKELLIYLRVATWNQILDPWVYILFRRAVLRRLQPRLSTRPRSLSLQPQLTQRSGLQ
Text: To operate a first selection, the capacity of these compounds to displace in a specific way a tritium ligand, the [^3H]
Cozzi P., Giordani A., Menichincheri M., Pillan A., Pinciroli V., Rossi A., Tonani R., Volpi D., Tamburin M., Ferrario R., Fusar D., Salvati P.,—Agents combining thromboxane receptor antagonism with thromboxane synthase inhibition:[[[2-(1H-imidazol-1-yl)ethylidene]amino]oxy]alkanoic acids.—J. Med. Chem., 1994, 37, 3588-3604.

[2] = target: T2, TPτ thromboxan A2 receptors (Rattus norvegicus, UniProt P34978); assay: Rat aorta contraction test (relaxation of aorta precontracted by U-46619); settings: tonus induced by U-46619 (0.03 μM); read-out: IC 50: concentration reducing by 50% the Rat Aorta muscular tonus
T2 construct: Two tests on smooth musculature have allowed to confirm the antagonist potency on the TPτ thromboxan A2 receptors; from tissue; host or cells: isolated rat aorta; isolated rat stomach fundus
T2 sequence (P34978 1-341): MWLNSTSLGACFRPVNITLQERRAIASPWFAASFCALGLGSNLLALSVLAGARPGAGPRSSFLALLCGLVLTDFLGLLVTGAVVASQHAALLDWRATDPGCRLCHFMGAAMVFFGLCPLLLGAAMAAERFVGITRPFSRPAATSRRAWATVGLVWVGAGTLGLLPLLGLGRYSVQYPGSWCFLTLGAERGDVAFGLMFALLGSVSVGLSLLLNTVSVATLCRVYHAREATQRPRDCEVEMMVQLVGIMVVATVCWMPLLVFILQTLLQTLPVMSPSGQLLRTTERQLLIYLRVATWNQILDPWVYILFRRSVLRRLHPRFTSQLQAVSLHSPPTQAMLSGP
Text: (§1) Two tests on smooth musculature have allowed to confirm the antagonist potency on the TPτ thromboxan A2 receptors. Indeed, the capacity of the selected compounds during the binding to prevent the contraction of the rat fundus induced by I′U-46619 and to relax the rat aorta precontracted by this same stable agonist of the TXA2 have been evaluated;
Test desribed according to:
de Tullio P., Pirotte B., Lebrun P., Fontaine J., Dupont L., Antoine M. H., Ouedraogo R., Khelili S., Maggetto C., Masereel B., Diouf O., Podona T., Delarge J., 3-and -4-substituted 4H-pyrido[4,3-e]-1,2,4-thiadiazine 1,1-dioxides as potassium channels openers: synthesis pharmacological evaluation, and structure-activity relationships.—J. Med. Chem., 1996, 39, 937-948.

[3] = target: T2, TPτ thromboxan A2 receptors; assay: Test for preventing the rat fundus contraction induced by U-46619; settings: contraction caused by 5 μg of U-46619; read-out: IC 50: concentration reducing of 50% of maximum contraction amplitude of rat fundus
Text: as §1
Test description according to:
Harris N., Greenberg R., Phillips M. B., Michel I. M., Goldenberg H. J., Haslanger M. F., Steinbacher T.E.,—Effects of SQ-27,427, a thromboxane A2 receptor antagonist, in the human platelet and isolated smooth muscle.—Eur. J. Pharmacol., 1984, 103, 9-18.

[4] = system: Human Platelets aggregation; assay: Human platelet aggregation test induced by arachidonic acid or U-46619; format: cell-based
Text: The TXA2 antagonist potency of the selected compounds has been evaluated by a platelet aggregation test induced by the U-46619 (stable agonist of the thromboxan A2) or by the arachidonic acid.
Test described according to:
Born G.V.R., Cross M. J.,—The aggregation of blood platelets.—J. Physiol., 1963, 168, 178-195.
Tsuyoshi T., Masayuki Y., Shuichi W., Kazuhiro K., Takashi Y.,—Designe, synthesis, and pharmacology of 3-substituted sodium azulene—1 sulfonates and related compounds: Non-prostaboid thromboxane A2 receptor antagonists.—J. Med. Chem., 1993, 36, 791-800.

[5] = Platelet, aggregation induced by 30 nM of U-46619, read-out: IC 50 platelet aggregation, U-46.619
[6] = Platelet, aggregation induced by arachidonic acid, read-out: IC 50 platelet aggregation, ARACHIDONIC ACID

| pIC50 [1] | inhibition at 1 µM [1] | inhibition at 0.1 µM [1] | pIC50 [2] | pIC50 [3] | pIC50 [4, 5] | pIC50 [4, 6] | Affinity: percent of [3H]SQ-29.548 specifically substituted by the examined compound, 10^-6M ([1]; compound 10^-6 M) | Affinity: percent of [3H]SQ-29.548 specifically substituted by the examined compound, 10^-7M ([1]; compound 10^-7 M) | pIC50 ([4]; aggregation induced by 30 nM of U-46619, read-out: IC 50 platelet aggregation, U-46.619) | pIC50 ([4]; aggregation induced by arachidonic acid, read-out: IC 50 platelet aggregation, ARACHIDONIC ACID) | Compound |
| --- | --- | --- | --- | --- | --- | --- | --- | --- | --- | --- | --- |
| 7.64 | 100% | 88% | 8.86 |  |  |  |  |  |  |  | O=C(NC1CCCCC1)NS(=O)(=O)c1cc([N+](=O)[O-])ccc1NC1CCCCC1 [Compound 17] |
| 7.62 | 100% | 88.9% | 8.92 | 7.15 | 6.32 | 6.44 |  |  |  |  | Cc1cccc(Nc2ccc([N+](=O)[O-])cc2S(=O)(=O)NC(=NC#N)N2CCCCCC2)c1 [Compound 18, N-cyano-N′-[(2-metatoluylamin-5-nitrobenzene)sulfonyl]homopiperidinoamidine] |
| 7.38 | 100% | 84.1% | 7.42 |  |  |  |  |  |  |  | O=C(NC1CCCCC1)NS(=O)(=O)c1cc([N+](=O)[O-])ccc1NC1CCCCCC1 [Compound 22] |
| 7.98 | 100% | 95.2% | 7.71 |  |  |  |  |  |  |  | CC(C)(C)NC(=O)NS(=O)(=O)c1cc([N+](=O)[O-])ccc1NC1CCCCCC1 [Compound 25] |
| 8.11 | 97.4% | 95.4% | 7.69 |  |  |  |  |  |  |  | CC(C)(C)NC(=O)NS(=O)(=O)c1cc([N+](=O)[O-])ccc1NC1CCCCC1 [Compound 29, N-[(2-cyclohexylamin-5-nitrobenzene)sulfonyl]N′-tert-butyl urea] |
| 7.57 | 94.4% | 63% | 7.75 |  |  |  |  |  |  |  | O=[N+]([O-])c1ccc(NC2CCCCCC2)c(S(=O)(=O)NC(=S)NC2CCCCC2)c1 [Compound 40, N-[(2-cycloheptylamin-5-nitrobenzene)sulfonyl]N′-cyclohexyl thiourea] |
|  |  |  | 7.50 | 6.74 |  |  | 100% | 72.0% | 7.47 | 7.46 | O=C(O)CCC/C=C\CC1C2CCC(O2)C1CNNC(=O)Nc1ccccc1 (stereo not drawn) [SQ-29.548, acid [15-[1-alpha,2-beta (5Z),3-beta, 4-alpha]-7-[3-[[2-(phenylamino)carbonyl]hydrazin]methyl]-7-oxabicyclo[2.2.1]hept-2-yl]-5-heptenoic, reference compound] |
|  | 55.6% | 16.5% | 5.80 | 6.08 | 4.98 | 4.93 |  |  |  |  | O=C(O)COc1ccc(CCNS(=O)(=O)c2ccccc2)cc1 [SULOTROBAN, sulotroban, reference compound] |
